In US10377741B2, “Substituted heteroaryl aldehyde compounds and methods for their use in increasing tissue oxygenation” (Global Blood Therapeutics, Inc., priority 2011, dated 2019):

Columns and labels:
whole blood = assay: Whole blood assay: oxygen equilibrium curves of whole blood; assay type: cell-based, human (homozygous sickle cell patients); conditions: compound at 1000 μM; hematocrit 20%, 1 hour at 37° C.
Protocol: Oxygen Equilibrium Curves (OEC) of whole blood before and after treatment with different concentrations of substituted benzaldehyde compounds were performed as follows using a HEMOX analyzer (TCS Scientific, New Hope, Pa.). Blood samples from homozygous sickle cell patients were obtained though the Hemoglobinopathy Center at Children's Hospital Oakland Research Institute (CHORI) with Institutional Review Board approval. The hematocrit was adjusted to 20% using autologous plasma and the blood samples were incubated for 1 hour at 37° C. in absence or presence of compounds. 100 μl of these samples were added to 5 mL of Hemox buffer (30 mM TES, 130 mM NaCl, 5 mM KCl, pH=7.4) at 37° C. and then transferred to the Hemox sample chamber. The samples were saturated with oxygen by flushing with compressed air for 10 minutes. The samples were then flushed with pure nitrogen and the respective absorbances of oxy- and deoxy-Hb are recorded as a function of the solution pO2. The oxygen equilibrium data were then fitted to the Hill Model to obtain values for p50. The deoxygenation curves for both whole blood alone (control) and whole blood in the presence of the compound were collected with the TCS software.
Table 5 below lists the delta p50% values where + indicates a delta p50% of between 0 and 29, ++ indicates a delta p50% of between 30 and 50, and +++ indicates a delta p50% of 50 or greater. Unless noted otherwise, the compounds in Table 2 were tested at 1000 μM.

[1] = molecular target: T1, purified Hemoglobin S (HbS) (Homo sapiens, UniProt P68871+P69905, E7V); assay: Modulation of hemoglobin oxygen affinity: oxygen equilibrium curves (HEMOX) in purified HbS; assay type: biochemical, human (homozygous sickle cell patients); conditions: compound at 30 μM; 25 μM purified HbS, 45 min at 37° C.
T1 construct: HbS was purified by a modified procedure; from tissue; host or cells: blood of homozygous sickle cell patients (CHORI); for the polymerization assay purified by the CRO VIRUSYS
Method in brief: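 HbS from homozygous sickle cell patient blood, 25 μM in HEMOX buffer pH 7.4, incubated 45 min at 37° C with compound (30 μM unless noted). Air-saturated then deoxygenated with N2; p50 from Hill fit; delta p50% = (control p50 − treated p50)/control p50 × 100.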

HbS/A = molecular target: T2, HbS/A (Homo sapiens, UniProt P68871+P69905, E7V); assay: R/T assay (relaxed-to-tense transition under deoxygenated conditions); assay type: biochemical, human (homozygous sickle cell patients); conditions: 3 μM HbS/A, % R remaining vs no treatment
T2 construct: A mixture of HbS/A was purified from blood; from tissue; host or cells: blood of homozygous sickle cell patients (CHORI)
Method in brief: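 Purified HbS/A (3 μM final) incubated 1 hr at 37° C with compounds (3 μM to 100 μM) in potassium phosphate buffer pH 7.4 with 30 μM DPG, then deoxygenated under N2 with 300–700 nm spectra every 5 min for 2 hours. Delta R is % R state retained versus untreated, by linear regression over all wavelengths.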

purified HBS = molecular target: T3, purified HBS (Homo sapiens, UniProt P68871+P69905, E7V); assay: Polymerization assay (delay time of HbS polymerization); assay type: biochemical, human (homozygous sickle cell patients); conditions: percent delay (% DT) vs HBS alone; 50 μM purified HBS, 1.8 M potassium phosphate pH 7.4
T3 construct: HbS was purified by a modified procedure; from tissue; host or cells: blood of homozygous sickle cell patients (CHORI); for the polymerization assay purified by the CRO VIRUSYS
Protocol: Polymerization assays are carried out in vitro using purified HBS exchanged into 1.8 M potassium phosphate buffer at pH 7.4. Using a slightly modified protocol (Antonini and Brunori, 1971), HbS is purified by the CRO VIRUSYS, from blood obtained from homozygous sickle cell patients through the Hemoglobinopathy Center at Children's Hospital Oakland Research Institute (CHORI) with Institutional Review Board approval. Compounds are prepared in 100% DMSO and a desired amount is added to 50 μM of purified HBS at a final DMSO concentration of 0.3%. Final potassium phosphate concentration is adjusted to 1.8 M using a combination of 2.5 M potassium phosphate stock solution and water at pH 7.4. The reaction mixture is incubated for an hour at 37° C. and then transferred into a 24-well plate for deoxygenation in a glove box containing 99.5% nitrogen and 0.5% oxygen. The 24-well plate is not covered and incubated at 4° C. on a plate cooler inside the glove box for one and a half hours. Fifty μL of the reaction mixture is transferred into a 96-well plate and the absorbance at 700 nm is measured every minute for one hour at 37° C. in a plate reader located inside the glove box. A plot of the absorbance against time is fitted using a Boltzman sigmoidal fit and the delay time (from zero to time at half Vmax) is measured. To compare and rank compounds, delay times are expressed as percent delay (% DT), which is defined as the difference in delay times for HBS/compound and HBS alone multiplied by 100 and divided by the delay time for HBS alone.
Compounds listed below have been tested in the polymerization assay. Activity ranges are defined by the number of dagger (†) symbols indicated. † denotes activity ≥40% but ≤80%; †† denotes activity >80% but ≤120%; ††† denotes activity >120% but ≤140%; †††† denotes activity >160%.

Compound | delta p50% Values for Whole Blood Assay (whole blood) | delta p50% [1] | delta R (HbS/A; compound at 30 μM) | % delta Delay (purified HBS) | delta R (HbS/A; compound at 9 μM)
COc1cc(C=O)c(OCc2cccn3ccnc23)cn1 [Compound 5] | + (a delta p50% of between 0 and 29) | ++ (a delta p50% of between 30 and 50) | ++ (a delta R of between 30 and 50) | † (activity ≥40% but ≤80%) | 
COc1cc(C=O)c(OCc2cccnc2-c2ccn(C)n2)cn1 [Compound 130, 2-methoxy-5-((2-(1-methyl-1H-pyrazol-3-yl)pyridin-3-yl)methoxy)isonicotinaldehyde] | ++ (a delta p50% of between 30 and 50) | ++ (a delta p50% of between 30 and 50) |  | † (activity ≥40% but ≤80%) | + (a delta R of between 0 and 30)
CCn1nccc1-c1ncccc1COc1cnc(OC)cc1C=O [Compound 149, 5-((2-(1-ethyl-1H-pyrazol-5-yl)pyridin-3-yl)methoxy)-2-methoxyisonicotinaldehyde] | +++ (a delta p50% of 50 or greater) | +++ (a delta p50% of 50 or greater) |  | † (activity ≥40% but ≤80%) | + (a delta R of between 0 and 30)
COc1cc(C=O)c(OCc2cccnc2-c2ccnn2C(C)C)cn1 [Compound 150] | +++ (a delta p50% of 50 or greater) | +++ (a delta p50% of 50 or greater) | +++ (a delta R of 50 or greater) | ††† (activity >120% but ≤140%) | 
O=Cc1cc(OC(F)F)ncc1OCc1cccn2ccnc12 [Compound 158, 2-(difluoromethoxy)-5-(imidazo[1,2-a]pyridin-8-ylmethoxy)isonicotinaldehyde] | + (a delta p50% of between 0 and 29) | ++ (a delta p50% of between 30 and 50) |  | † (activity ≥40% but ≤80%) | + (a delta R of between 0 and 30)
COc1cc(C=O)c(OCc2cccnc2-c2ccccc2)cn1 [Compound 159, 2-methoxy-5-((2-phenylpyridin-3-yl)methoxy) isonicotinaldehyde] | +++ (a delta p50% of 50 or greater) | +++ (a delta p50% of 50 or greater) | ++ (a delta R of between 30 and 50) | †† (activity >80% but ≤120%) | 
COc1cc(C=O)c(OCc2ccncc2-c2ccnn2C(C)C)cn1 [Compound 160, 5-((3-(1-isopropyl-1H-pyrazol-5-yl)pyridin-4-yl)methoxy)-2-methoxyisonicotinaldehyde] | +++ (a delta p50% of 50 or greater) | +++ (a delta p50% of 50 or greater) | + (a delta R of between 0 and 30) | †† (activity >80% but ≤120%) | 
COc1cc(C=O)c(OCc2cccnc2-c2ccccc2C)cn1 [Compound 162, 2-methoxy-5-((2-(o-tolyl)pyridin-3-yl)methoxy)isonicotinaldehyde] | +++ (a delta p50% of 50 or greater) | +++ (a delta p50% of 50 or greater) | +++ (a delta R of 50 or greater) | †† (activity >80% but ≤120%) | 
COc1cc(C=O)c(OCc2cccnc2-c2cccnc2OC)cn1 [Compound 163, 2-methoxy-5-((2′-methoxy-[2,3′-bipyridin]-3-yl)methoxy)isonicotinaldehyde] | +++ (a delta p50% of 50 or greater) | +++ (a delta p50% of 50 or greater) | ++ (a delta R of between 30 and 50) | †† (activity >80% but ≤120%) | 
COC(=O)c1ccc(COc2cccnc2C=O)cc1 [Compound 164] | ++ (a delta p50% of between 30 and 50) | ++ (a delta p50% of between 30 and 50) |  | ††† (activity >120% but ≤140%) | ++ (a delta R of between 30 and 50)
Cc1ccc(OCc2ccc(C(=O)O)cc2)c(C=O)n1 [Compound 165, 4-(((2-formyl-6-methylpyridin-3-yl)oxy)methyl)benzoic acid] | + (a delta p50% of between 0 and 29) | ++ (a delta p50% of between 30 and 50) |  | ††† (activity >120% but ≤140%) | + (a delta R of between 0 and 30)
O=Cc1ccncc1OCc1cccc(C(=O)O)c1 [Compound 169, 3-(((4-formylpyridin-3-yl)oxy)methyl)benzoic acid] | ++ (a delta p50% of between 30 and 50) | ++ (a delta p50% of between 30 and 50) |  | ††† (activity >120% but ≤140%) | ++ (a delta R of between 30 and 50)
CCCn1nccc1-c1ncccc1COc1cnc(OC)cc1C=O [Compound 173, 2-methoxy-5-((2-(1-propyl-1H-pyrazol-5-yl)pyridin-3-yl)methoxy)isonicotinaldehyde] | +++ (a delta p50% of 50 or greater) | +++ (a delta p50% of 50 or greater) | +++ (a delta R of 50 or greater) | † (activity ≥40% but ≤80%) | 
COc1cncc(OCc2cccnc2-c2ccnn2C(C)C)c1C=O [Compound 188, 3-((2-(1-isopropyl-1H-pyrazol-5-yl)pyridin-3-yl)methoxy)-5-methoxyisonicotinaldehyde] | +++ (a delta p50% of 50 or greater) | +++ (a delta p50% of 50 or greater) |  | ††† (activity >120% but ≤140%) | 
COc1cc(C=O)c(OCc2cccnc2-c2ncnn2C(C)C)cn1 [Compound 189, 5-((2-(2-isopropyl-2H-1,2,4-triazol-3-yl)pyridin-3-yl)methoxy)-2-methoxyisonicotinaldehyde] | +++ (a delta p50% of 50 or greater) | ++ (a delta p50% of between 30 and 50) |  | ††† (activity >120% but ≤140%) | 
COc1cc(C=O)c(OCc2cccnc2-c2c(C)cnn2C(C)C)cn1 [Compound 190, 5-((2-(1-isopropyl-4-methyl-1H-pyrazol-5-yl)pyridin-3-yl)methoxy)-2-methoxyisonicotinaldehyde] | +++ (a delta p50% of 50 or greater) | +++ (a delta p50% of 50 or greater) |  | ††† (activity >120% but ≤140%) | 
COc1cc(C=O)c(OCc2cccc(C(=O)O)c2)cn1 [Compound 203, 3-(((4-formyl-6-methoxypyridin-3-yl)oxy)methyl)benzoic acid] |  | +++ (a delta p50% of 50 or greater) |  | †† (activity >80% but ≤120%) | + (a delta R of between 0 and 30)
